{
  "source": "patent US11939402B2",
  "about": "“Antifungal peptides, compounds including the same, and methods of use thereof” (priority 2022, dated 2024)",
  "key": {"[1]": {"test_system": "C. neoformans wild type strain H99", "experiment": "microbe, parasite or virus in culture", "format": "cell-based, Cryptococcus neoformans", "details": "wild-type H99, alone, read at 24 and 48 hours, 37° C.", "method": "The assays followed standard CLSI protocol for broth microdilution assays using yeasts.(32) Microbes were passaged in YPD media at 37° C. with mixing for 2 days before harvesting with an inoculation loop to prepare monocultures on Sabouraud Dextrose Agar (SDA) plates. Monocultures on SDA plates were incubated for 2 days at 37° C. before harvesting cells for microdilution assays. RPMI media (100 μL) was charged to each of the 96 wells in a 96 well plate, with an additional 100 μL in the first column. […] The 100 μL was serially diluted by a factor of 2 from the first column to the 11th column. Microbe inoculant was then prepared. An inoculation loop was used to transfer 1-3 colonies of cells to 1 mL phosphate buffer solution (PBS). The PBS and microbe solution was made uniform by vortex mixing. Cell concentration was computed by comparing the absorbance at 530 nm to 1× McFarland standard solution and multiplying the resulting ratio by 10^7 cell/mL conversion factor. Plate inoculant was prepared by diluting the PBS microbe solution to 5000 cell/mL, in RPMI media. A 100 μL aliquot of cells was transferred to each of the wells on the plate other than column 11 for the no growth control. The operating volume was 200 μL, with 500 CFU per well for a final concentration of 2.5*10^3 cells/mL."}, "[2]": {"test_system": "C. neoformans cdc50Δ mutant strain", "format": "cell-based, Cryptococcus neoformans", "details": "alone", "method": "The assays followed standard CLSI protocol for broth microdilution assays using yeasts.(32) Microbes were passaged in YPD media at 37° C. with mixing for 2 days before harvesting with an inoculation loop to prepare monocultures on Sabouraud Dextrose Agar (SDA) plates. Monocultures on SDA plates were incubated for 2 days at 37° C. before harvesting cells for microdilution assays. RPMI media (100 μL) was charged to each of the 96 wells in a 96 well plate, with an additional 100 μL in the first column. Peptide-DMSO solution (4 μL) at 12.8 mg/mL was charged to each of the wells in the first column. The 100 μL was serially diluted by a factor of 2 from the first column to the 11th column. Microbe inoculant was then prepared. An inoculation loop was used to transfer 1-3 colonies of cells to 1 mL phosphate buffer solution (PBS). The PBS and microbe solution was made uniform by vortex mixing. Cell concentration was computed by comparing the absorbance at 530 nm to 1× McFarland standard solution and multiplying the resulting ratio by 10^7 cell/mL conversion factor. Plate inoculant was prepared by diluting the PBS microbe solution to 5000 cell/mL, in RPMI media. A 100 μL aliquot of cells was transferred to each of the wells on the plate other than column 11 for the no growth control. The operating volume was 200 μL, with 500 CFU per well for a final concentration of 2.5*10^3 cells/mL."}, "[3]": {"test_system": "C. neoformans cdc50Δ mutant strain", "details": "earlier mutation study / literature; cited from earlier work"}, "[4]": {"test_system": "C. neoformans wild type strain H99", "details": "earlier mutation study; cited from earlier work"}, "[5]": {"test_system": "C. neoformans wild type strain H99", "description": "Microbes were prepared in the same manner as the MIC assay. […] 100 μL of RPMI media was added to the first 8 wells in the first row. […] The 100 μL of media with drug was serially diluted from the first row to the final row. […] Column 11 was the no growth control, and 12 was the no drug control. The plate was inoculated with microbes in the same manner as the MIC assay. Again, 200 uL was the operating volume, 500 CFU per well, 2.5*10^3 cell/mL. Plates were incubated for 48 hours at 37° C. and read thereafter. The Fractional Inhibitory Concentration Index were calculated as follows:\nWhere the MICA and MICB are the MIC values of drugs A and B alone and FICA and FICB are the Fractional Inhibitory concentrations of drugs A and B in the presence of each other, respectively."}, "C. neoformans H99": {"test_system": "C. neoformans H99", "experiment": "SDS and plate spotting assay", "format": "cell-based, Cryptococcus neoformans", "details": "H99 pre-treated with peptide at 128 for one hour; versus untreated or DMSO controls", "description": "To test cell integrity, C. neoformans strains from 3 ml YPD overnight cultures were washed, resuspended, and serially diluted (1:10) in dH2O and spotted (5 μl) on YPD agar plates or YPD agar plates containing 0.03% SDS and incubated for 2 days at 30° C. and 37° C.\nOf each strain, yeast cells were inoculated into liquid YPD with 128 μg/ml or 64 μg/ml peptide and co-incubated for 1 h at 30° C. And then, ten-fold serial dilutions were prepared, and 5 μl of each was spotted on YPD and YPD agar plates containing 0.03% SDS. The results were photographed after a 48 h incubation. Their growth was determined by serial dilutions and the fungal colonies were assessed by CFU numbers.\nBriefly, cultures of C. neoformans were grown in YPD and then spotted on YPD plates containing 0.03% SDS."}, "[6]": {"test_system": "human red blood cells (RBCs)", "details": "1 hour 37° C.; relative to Triton X-100 control", "description": "Hemolysis assays were preformed using human red blood cells (RBCs), which were provided by Interstate Blood Bank (Philadelphia, PA) and stored immediately at 4° C. upon arrival. […] Free heme was extracted from stored RBCs washing in PBS with gentle centrifugation at 1000 RPM for 5 minutes. Washed cells resuspended to 4 mL in PBS and counted using a hemocytometer. […] Red blood cells were adjusted to 5*10^8 cells/mL and 50 uL was added to each of the wells. Operating conditions were 100 μL and 2.5*10^8 cell/mL. The positive control used as 2 μL of 1% Triton X-100. The plate was incubated at 37° C. for 1 hour. The resulting plate was spun down at 1000 RPM for 5 minutes. 20 μL supernatant was transferred to 80 μL PBS in a fresh 96 well plate for analysis (operating volume 100 μL.) A Spectra Max 340 plate reader (Molecular Devices, Sunnyvale, CA) was used to measure the absorbance of the analysis plate at 410 nm. The scans were run in triplicate. Averages and standard deviations between scans and replicates were computed. The negative control was subtracted from all the data points. The resulting corrected data was normalized by the corrected positive control."}, "[7]": {"test_system": "C. neoformans cdc50Δ mutant strain", "format": "cell-based, Cryptococcus neoformans", "details": "concentration of the peptide in combination with caspofungin; ΔCDC50", "method": "The Fractional Inhibitory Concentration Index were calculated as follows: […]"}, "C. neoformans cells": {"test_system": "C. neoformans cells", "experiment": "AF350-Annexin V / propidium iodine flow cytometry assay (exofacial phosphatidylserine)", "format": "cell-based, Cryptococcus neoformans", "details": "0.128 mg/mL peptide, 20 minutes at 25° C.; control 0.2±0.1%", "method": "Stock microbes were defrosted from the −80° C. freezer and were passed twice for 48 hours each in YPD media. The YPD media was removed by spinning down and the supernatant was decanted. Pelletized cells were resuspended in 1 mL PBS media and washed for 5 minutes with incubation at 25° C. and 250 RPM. Washed cells were spun down again and suspended in 1 mL of PBS solution. cells were diluted 20-fold into 1 mL fungal working solution in an eppendorf. Cell concentration was quantified via comparison to 1× McFarlain's standard on a plate reader using the absorbance value at 530 nm. An aliquot of 1*10^6 cells in 100 μL was created (1*10^7 cell/mL). […] The cells were incubated for 20 minutes at 25° C. and 250 RPM. Baseline and experimental samples were prepared in triplicate. Cells were stained using an operating concentration of 0.001 mg/mL Propidium Iodine (PI) and a 40-fold dilution of AlexaFluor 350 labelled annexin V as per manufactures instructions. After staining the cells, samples were spun down and supernatant decanted. Cells were then fixed in 4% formaldehyde for 5 minutes. Fixed cells were spun down and supernatant decanted and resuspended in 400 μL 1% formaldehyde for flowcytometry. Samples were collected at a slow flow rate on a MACS Quant 10 device (Miltenyi Biotech, Auburn, CA) with 20,000 events collected per injection.\nIt was sought to determine whether the activities of the peptides were related to the lipid-flipping activity of the P4-ATPase. […] The intensity of the AF350-annexin V signal corresponds to concentration of PS on the exofacial side of the membrane. The propidium iodine signal corresponds to cell viability.\nSingle cells were first selected and gated based on morphology to ensure homogeneity among the cell population (4A, 4B). Cells with low propidium iodine intensity (PI-A<9 RU) and high AF350-annexin V intensity (Annexin V-A>9 RU) (4C, 4D) were examined. Under these gating parameters there should be, respectively, low non-specific cell death and high exofacial PS."}},
  "note": "Where a SMILES comes first, the peptide text is derived from it. The star is where a group is joined. Myristoyl = CCCCCCCCCCCCCC(=O)*",
  "data": [
    {"compound": "CC[C@H](C)C[C@H](C)CCCCCCCCC(=O)N[C@H]1C[C@@H](O)[C@@H](NCCN)NC(=O)[C@@H]2[C@@H](O)CCN2C(=O)[C@H]([C@H](O)CCN)NC(=O)[C@H]([C@H](O)[C@@H](O)c2ccc(O)cc2)NC(=O)[C@@H]2C[C@@H](O)CN2C(=O)[C@H]([C@@H](C)O)NC1=O", "note": "[Caspofungin, reference compound]", "values": [
      {"measurement": "MIC", "setting": "[1]; Cryptococcus neoformans, read-out: MIC ug/mL H99", "result": 16, "unit": "µg/mL"},
      {"measurement": "MIC ug/mL ΔCDC50", "setting": "[2]", "result": 4, "unit": "µg/mL"},
      {"measurement": "MIC of caspofungin in cdc50Δ", "setting": "[3]", "result": 4, "unit": "µg/mL"},
      {"measurement": "MIC of caspofungin in wild-type strain H99", "setting": "[4]", "result": 16, "unit": "µg/mL"}
    ]},
    {"compound": "CCCCCCCCCCCCCC(=O)N[C@@H](Cc1c[nH]c2ccccc12)C(=O)NCC(=O)NCC(=O)N[C@H](C(=O)N[C@@H](CCCCN)C(=O)N[C@@H](CCCCN)C(=O)N[C@@H](CC(N)=O)C(=O)N[C@@H](Cc1ccc(O)cc1)C(=O)N[C@@H](C)C(=O)O)[C@@H](C)CC", "note": "[AW9-Ma] (Myristoyl-WGGIKKNYA-OH)", "values": [
      {"measurement": "MIC ug/mL H99", "setting": "[1]", "result": 64, "unit": "µg/mL"},
      {"measurement": "MIC ug/mL ΔCDC50", "setting": "[2]", "result": 2, "unit": "µg/mL"},
      {"measurement": "MIC of caspofungin in the presence of the AW9-Ma peptide", "setting": "[5]; C. neoformans wild type", "result": 4, "unit": "µg/mL"},
      {"measurement": "FIC ug/mL H99 Peptide", "setting": "[5]; concentration of the peptide in combination with caspofungin, H99", "result": 16, "unit": "µg/mL"},
      {"measurement": "growth (colony forming units) on agar medium with 0.03% SDS", "setting": "C. neoformans H99", "result": "significantly reduced growth"},
      {"measurement": "hemolysis of human RBC", "setting": "[6]", "result": "low amounts of hemolysis"},
      {"measurement": "FIC ug/mL ΔCDC50 Peptide", "setting": "[7]", "result": 0.125, "unit": "µg/mL"},
      {"measurement": "percentage of cells with low propidium iodine intensity (PI-A<9 RU) and high AF350-annexin V intensity (Annexin V-A>9 RU)", "setting": "C. neoformans cells", "result": "67.6%±2.3"}
    ]}
  ]
}
